In patent US7265152B2 (ViroPharma Incorporated, priority 2002, dated 2007):
Read-outs that look alike come from different tables or passages of the source.

Key:
[1] = biological target: T1, HCV NS5B (Hepatitis C virus genotype 1b, UniProt Q9WMX2); test: Inhibition of viral RNA-dependent RNA polymerase (RdRp), in vitro biochemical assay; parameters: species or system HCV genotype 1b virus (BB7); details: read-out: HCV pol-BB7 IC50
T1 construct: fusion protein, of which the carboxyl terminal 21 amino acids were removed to enhance its solubility; His tag (GSHHHHHH); made in house; host or cells: E. coli
Method in brief: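 Purified recombinant NS5B from a genotype 1b consensus (BB7), His-tagged, E. coli-expressed, with the C-terminal 21 residues deleted. Inhibition of RdRp activity in vitro was measured, and IC50 is the concentration giving 50% inhibition.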

[2] = test system: HCV replicon (BB7 sequence) in Huh-7-Clone A cells; test: HCV replicon assay: ELISA of NS5A protein in replicon-containing cells (Inhibition of Viral RNA Replication); format: cell-based; details: Hepatitis C virus, read-out: Replicon
Method in brief: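 Huh-7-Clone A cells carrying subgenomic BB7 HCV replicon (G418-selectable) incubated 72 h with compound. NS5A protein quantified by cell ELISA: glutaraldehyde fixation, anti-NS5A monoclonal plus HRP secondary, TMB read at OD 650 nm. EC50 derived from 8-point serial dilution dose curve.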

[3] = HCV NS5B RdRp, BB7, reported as range class
[4] = HCV NS5B polymerase, BB7 (genotype 1b), values given as range classes A-D
[5] = HCV replicon assay, ranges of 50% effective concentration (EC50)
[6] = HCV NS5B RdRp, BB7, class symbols A-D
[7] = HCV replicon assay, ranges of EC50
[8] = HCV NS5B RdRp, BB7, activity class
[9] = purified His-tagged NS5B (BB7), carboxyl terminal 21 amino acids removed
[10] = Huh-7-Clone A, NS5A ELISA, 72-hour incubation, ranges of EC50
[11] = ranges of EC50 in HCV replicon assay

For CNC(=O)c1c(-c2ccc(F)cc2)oc2cc(N3CCOCC3)c(OCCOC)cc12 [Example 226, 2-(4-Fluoro-phenyl)-5-(2-methoxy-ethoxy)-6-morpholin-4-yl-benzofuran-3-carboxylic acid methylamide], the IC50 [1, 3] was no more than 0.5 µM and the EC50 ([2]; HCV replicon, range of EC50) was less than 1 µM.
CNC(=O)c1c(-c2ccc(F)cc2)oc2cc(-c3nc(C)n[nH]3)c(OC)cc12 [Example 383, 2-(4-Fluoro-phenyl)-5-methoxy-6-(5-methyl-2H-[1,2,4]triazol-3-yl)-benzofuran-3-carboxylic acid methylamide] gave an IC50 [1, 4] of 0.5 to 5 µM and an EC50 [2, 5] of less than 10 µM.
Compound CNC(=O)c1c(-c2ccc(F)cc2)oc2cc(N(Cc3ccc(C(=O)O)cc3)S(C)(=O)=O)c(OC(C)C)cc12 [Example 272, 4-({[2-(4-Fluoro-phenyl)-5-isopropoxy-3-methylcarbamoyl-benzofuran-6-yl]-methanesulfonyl-amino}-methyl)-benzoic acid] has an IC50 [1, 6] of no more than 0.5 µM and an EC50 [2, 7] of no more than 1 µM.
CCNc1cc2oc(-c3ccc(F)cc3)c(C(=O)NC)c2c(Cl)c1OS(C)(=O)=O [Example 342, Methanesulfonic acid 4-chloro-6-ethylamino-2-(4-fluoro-phenyl)-3-methylcarbamoyl-benzofuran-5-yl ester] was tested, and the IC50 [1, 8] was no more than 0.5 µM and the EC50 [2, 7] was less than 10 µM.
CNC(=O)c1c(-c2ccc(F)cc2)oc2cc(N)c(O)cc12 [Example 182, 6-Ainino-2-(4-fluoro-phenyl)-5-hydroxy-benzofuran-3-carboxylic acid methylamide] was tested, and the IC50 [1, 3] was 0.5 to 5 µM and the EC50 ([2]; HCV replicon, range of EC50) was less than 30 µM.
CNC(=O)c1c(-c2ccc(F)cc2)oc2cc(NS(C)(=O)=O)c(-c3ccco3)cc12 [Example 426, 2-(4-Fluoro-phenyl)-5-furan-2-yl-6-methanesulfonylamino-benzofuran-3-carboxylic acid methylamide] was tested, and the IC50 [1, 4] was no more than 0.5 µM and the EC50 [2, 5] was less than 1 µM.
CNC(=O)c1c(-c2ccc(F)cc2)oc2cc(N3CCSCC3)c(OC(C)C)cc12 [Example 186, 2-(4-Fluoro-phenyl)-5-isopropoxy-6-thiomorpholin-4-yl-benzofuran-3-carboxylic acid methylamide] showed an IC50 [1, 3] of no more than 0.5 µM and an EC50 ([2]; HCV replicon, range of EC50) of less than 1 µM.
Compound CNC(=O)c1c(-c2ccc(F)cc2)oc2ccc(OC(F)F)cc12 [Example 7, 5-Difluoromethoxy-2-(4-fluoro-phenyl)-benzofuran-3-carboxylic acid methylamide] has an IC50 [1, 9] of 0.5 to 5 µM and an EC50 [2, 10] of less than 10 µM.
In the case of CNC(=O)c1c(-c2ccc(F)cc2)oc2cc(NS(C)(=O)=O)ccc12 [Example 243, 2-(4-Fluoro-phenyl)-6-methanesulfonylamino-benzofuran-3-carboxylic acid methylamide], the IC50 [1, 3] is reported as 0.5 to 5 µM and the EC50 ([2]; HCV replicon, range of EC50) is reported as less than 10 µM.
CNC(=O)c1c(-c2ccc(F)cc2)oc2cc(N3CCOCC3)c(OCc3c(C)noc3C)cc12 [Example 217, 5-(3,5-Dimethyl-isoxazol-4-ylmethoxy)-2-(4-fluoro-phenyl)-6-morpholin-4-yl-benzofuran-3-carboxylic acid methylamide] showed an IC50 [1, 3] of 0.5 to 5 µM and an EC50 ([2]; HCV replicon, range of EC50) of less than 10 µM.
With CNC(=O)c1c(-c2ccc(F)cc2)oc2cc(-c3c(C)noc3C)c(OCC3CC3)cc12 [Example 428, 5-Cyclopropylmethoxy-6-(3,5-dimethyl-isoxazol-4-yl)-2-(4-fluoro-phenyl)-benzofuran-3-carboxylic acid methylamide] the IC50 [1, 4] was no more than 0.5 µM and the EC50 [2, 5] was less than 1 µM.
With CNC(=O)c1c(-c2ccc(F)cc2)oc2cc(NCC3CC3)c(OC(C)C)cc12 [Example 115, 6-(Cyclopropylmethyl-amino)-2-(4-fluoro-phenyl)-5-isopropoxy-benzofuran-3-carboxylic acid methylamide] the IC50 ([1]; HCV NS5B RdRp, BB7 genotype 1b) was no more than 0.5 µM and the EC50 [2, 11] was less than 1 µM.
For CNC(=O)c1c(-c2ccc(F)cc2)oc2cc(N(C)S(C)(=O)=O)c(OCc3ccc(C(=O)O)cc3)cc12 [Example 311, 4-[2-(4-Fluoro-phenyl)-6-(methanesulfonyl-methyl-amino)-3-methylcarbamoyl-benzofuran-5-yloxymethyl]-benzoic acid], the IC50 [1, 6] was no more than 0.5 µM and the EC50 [2, 7] was less than 10 µM.
In the case of CNC(=O)c1c(-c2ccc(F)cc2)oc2ccc(OCc3cccc(C(=O)OC)c3)cc12 [Example 258, 3-[2-(4-Fluoro-phenyl)-3-methylcarbamoyl-benzofuran-5-yloxymethyl]-benzoic acid methyl ester], the IC50 [1, 6] is reported as no more than 0.5 µM and the EC50 [2, 7] is reported as greater than 30 µM.
Work on CNC(=O)c1c(-c2ccc(F)cc2)oc2cc(N(C)S(C)(=O)=O)c(OCc3cc(OC)cc(OC)c3)cc12 [Example 352, 5-(3,5-Dimethoxy-benzyloxy)-2-(4-fluoro-phenyl)-6-(methanesulfonyl-methyl-amino)-benzofuran-3-carboxylic acid methylamide] yielded an IC50 [1, 8] of no more than 0.5 µM and an EC50 [2, 7] of less than 1 µM.
CNC(=O)c1c(-c2ccc(OC)cc2)oc2ccc(OC)cc12 [Example 54, 5-Methoxy-2-(4-methoxy-phenyl)-benzofuran-3-carboxylic acid methylamide] was tested, and the IC50 [1, 9] was 0.5 to 5 µM and the EC50 [2, 10] was less than 10 µM.
CNC(=O)c1c(-c2ccc(F)cc2)oc2cc(N3CCN(C)CC3)c(OC(C)C)cc12 [Example 132, 2-(4-Fluoro-phenyl)-5-isopropoxy-6-(4-methyl-piperazin-1-yl)-benzofuran-3-carboxylic acid methylamide] gave an IC50 ([1]; HCV NS5B RdRp, BB7 genotype 1b) of 5 to 30 µM and an EC50 [2, 11] greater than 30 µM.
Compound CNC(=O)c1c(-c2ccc(C)c(F)c2)oc2ccc(OC)cc12 [Example 69, 2-(3-Fluoro-4-methyl-phenyl)-5-methoxy-benzofuran-3-carboxylic acid methylamide] has an IC50 [1, 9] of no more than 0.5 µM and an EC50 [2, 10] of less than 10 µM.
CNC(=O)c1c(-c2ccccc2)oc2ccc(OC(C)C)cc12 [Example 59, 5-Isopropoxy-2-phenyl-benzofuran-3-carboxylic acid methylamide] showed an IC50 [1, 9] of 0.5 to 5 µM and an EC50 [2, 10] of less than 30 µM.
CNC(=O)c1c(-c2ccc(F)cc2)oc2cc(CNS(C)(=O)=O)c(OC(C)C)cc12 [Example 162, 2-(4-Fluoro-phenyl)-5-isopropoxy-6-(methanesulfonylamino-methyl)-benzofuran-3-carboxylic acid methylamide] was tested, and the IC50 ([1]; HCV NS5B RdRp, BB7 genotype 1b) was 0.5 to 5 µM and the EC50 [2, 11] was less than 10 µM.
Work on CNC(=O)c1c(-c2ccc(F)cc2)oc2cc(-c3c(C)noc3C)c(O)cc12 [Example 314, 6-(3,5-Dimethyl-isoxazol-4-yl)-2-(4-fluoro-phenyl)-5-hydroxy-benzofuran-3-carboxylic acid methylamide] yielded an IC50 [1, 6] of no more than 0.5 µM and an EC50 [2, 7] of less than 1 µM.
CNC(=O)c1c(-c2ccc(F)cc2)oc2cc(-c3nnn[nH]3)c(OC(C)C)cc12 [Example 139, 2-(4-Fluoro-phenyl)-5-isopropoxy-6-(1H-tetrazol-5-yl)-benzofuran-3-carboxylic acid methylamide] was tested, and the IC50 ([1]; HCV NS5B RdRp, BB7 genotype 1b) was 0.5 to 5 µM and the EC50 [2, 11] was greater than 30 µM.
CNC(=O)c1c(-c2ccc(F)cc2)oc2cc(N(C)S(C)(=O)=O)c(OC)cc12 [Example 29, 2-(4-Fluoro-phenyl)-6-(methanesulfonyl-methyl-amino)-5-methoxy-benzofuran-3-carboxylic acid methylamide] gave an IC50 [1, 9] of no more than 0.5 µM and an EC50 [2, 10] of less than 1 µM.
CNC(=O)c1c(-c2ccccc2)oc2ccc(C)cc12 [Example 9, 5-Methyl-2-phenyl-benzofuran-3-carboxylic acid methylamide] was tested, and the IC50 [1, 9] was 0.5 to 5 µM and the EC50 [2, 10] was less than 10 µM.
CNC(=O)c1c(-c2ccc(F)cc2)oc2cc(-c3c(C)noc3C)c(OCc3c(C)noc3C)cc12 [Example 429, 6-(3,5-Dimethyl-isoxazol-4-yl)-5-(3,5-dimethyl-isoxazol-4-ylmethoxy)-2-(4-fluoro-phenyl)-benzofuran-3-carboxylic acid methylamide] gave an IC50 [1, 4] of no more than 0.5 µM and an EC50 [2, 5] of less than 1 µM.
With CNC(=O)c1c(-c2ccc(Br)c(F)c2)oc2ccc(OC(C)C)cc12 [Example 90, 2-(4-Bromo-3-fluoro-phenyl)-5-isopropoxy-benzofuran-3-carboxylic acid methylamide] the IC50 ([1]; HCV NS5B RdRp, BB7 genotype 1b) was no more than 0.5 µM and the EC50 [2, 11] was less than 10 µM.
For CNC(=O)c1c(-c2ccccc2)oc2ccc(COC)cc12 [Example 78, 5-Methoxymethyl-2-phenyl-benzofuran-3-carboxylic acid methylamide], the IC50 [1, 9] was 0.5 to 5 µM and the EC50 [2, 10] was less than 30 µM.
In the case of CNC(=O)c1c(-c2ccc(F)cc2)oc2cc(-c3nnc[nH]3)c(OC(C)C)cc12 [Example 279, 2-(4-Fluoro-phenyl)-5-isopropoxy-6-(4H-[1,2,4]triazol-3-yl)-benzofuran-3-carboxylic acid methylamide], the IC50 [1, 6] is reported as no more than 0.5 µM and the EC50 [2, 7] is reported as less than 30 µM.
With CNC(=O)c1c(-c2ccc(F)cc2)oc2cc(C(O)C(C)C)c(OC(C)C)cc12 (stereo not drawn) [Example 238, 2-(4-Fluoro-phenyl)-6-(1-hydroxy-2-methyl-propyl)-5-isopropoxy-benzofuran-3-carboxylic acid methylamide] the IC50 [1, 3] was no more than 0.5 µM and the EC50 ([2]; HCV replicon, range of EC50) was less than 1 µM.
CNC(=O)c1c(-c2ccc(F)cc2)oc2cc(N3CCOCC3)c(OCc3ccc(C(=O)OC)cc3)cc12 [Example 262, 4-[2-(4-Fluoro-phenyl)-3-methylcarbamoyl-6-morpholin-4-yl-benzofuran-5-yloxymethyl]-benzoic acid methyl ester] gave an IC50 [1, 6] of no more than 0.5 µM and an EC50 [2, 7] of less than 10 µM.
